According to ChEMBL document CHEMBL5505985 (Eur J Med Chem, 2024):
Activity calls are given as the source filed them. No cut-off for these calls is given here.

Legend:
RAW264.7 [1] = experiment: Antiinflammatory activity in LPS-induced mouse RAW264.7 cells assessed as inhibition of ROS secretion preincubated for 1 hr followed by LPS stimulation and measured after 24 hrs by fluorescence based analysis; type: functional, cell-based; conditions: dose 2-30 µM, time 25.0 hrs
RAW264.7 [2] = experiment: Antiinflammatory activity in LPS-induced mouse RAW264.7 cells assessed as downregulation of IL-6 secretion preincubated for 1 hr followed by LPS stimulation and measured after 24 hrs by ELISA method; type: functional, cell-based; conditions: dose 2-30 µM, time 25.0 hrs
RAW264.7 [3] = experiment: Antiinflammatory activity in LPS-induced mouse RAW264.7 cells assessed as downregulation of IL-1 beta secretion preincubated for 1 hr followed by LPS stimulation and measured after 24 hrs by ELISA method; type: functional, cell-based; conditions: dose 2-30 µM, time 25.0 hrs
RAW264.7 [4] = experiment: Inhibition of LPS-induced NFkappaB activation in mouse RAW264.7 cells assessed as inhibition of IKKalpha phosphorylation level preincubated for 1 hr followed by LPS stimulation and measured after 30 mins by Westernblot analysis; type: cell-based; conditions: dose 10-30 µM, time 1.5 hrs
RAW264.7 [5] = experiment: Inhibition of MAPK signalling pathway in LPS induced mouse RAW264.7 cells assessed as effect on ERK phosphorylation level at 10 to 30 uM preincubated for 1 hr followed by LPS stimulation and measured after 30 mins by Westernblot analysis; type: cell-based; conditions: dose 10-30 µM, time 1.5 hrs
[6] = molecular target: NACHT, LRR and PYD domains-containing protein 3 (Mus musculus) (UniProt Q8R4B8); experiment: Inhibition of NLRP3 inflammasome in LPS-induced mouse RAW264.7 cells assessed as inhibition of ASC expression at 10 to 30 uM primed with LPS for 4.5 hs followed by incubation with compound for 1 hr and later stimulation with ATP for 30 mins by Western blot analysis; type: cell-based; conditions: dose 10-30 µM, time 1.5 hrs
Mus musculus [7] = experiment: Antiinflammatory activity against DSS-induced ulcerative colitis BALB/c mouse assessed as attenuation of colonic length reduction at 0.25 mg/kg, po for 5 days and measured after 12 days; type: functional, organism-based; conditions: time 12.0 day
Mus musculus [8] = experiment: Antiinflammatory activity against DSS-induced ulcerative colitis BALB/c mouse assessed as amelioration of inflammatory cell infiltration at 0.25 mg/kg, po for 5 days and measured after 12 days; type: functional, organism-based; conditions: time 12.0 day
Mus musculus [9] = experiment: Antiinflammatory activity against DSS-induced ulcerative colitis BALB/c mouse assessed as amelioration of goblet cell depletion at 0.25 mg/kg, po for 5 days and measured after 12 days; type: functional, organism-based; conditions: time 12.0 day
Mus musculus [10] = experiment: Antiinflammatory activity against DSS-induced ulcerative colitis BALB/c mouse assessed as amelioration of crypt architecture loss at 0.25 mg/kg, po for 5 days and measured after 12 days; type: functional, organism-based; conditions: time 12.0 day
Mus musculus [11] = experiment: Protection against DSS-induced ulcerative colitis BALB/c mouse assessed as recovery of blood sinusoids at 0.25 mg/kg, po for 5 days and measured after 12 days by H and E staining based analysis; type: functional, organism-based; conditions: time 12.0 day

Sequence of NACHT, LRR and PYD domains-containing protein 3 (Mus musculus) (Q8R4B8 whole entry, the tested form may be a part): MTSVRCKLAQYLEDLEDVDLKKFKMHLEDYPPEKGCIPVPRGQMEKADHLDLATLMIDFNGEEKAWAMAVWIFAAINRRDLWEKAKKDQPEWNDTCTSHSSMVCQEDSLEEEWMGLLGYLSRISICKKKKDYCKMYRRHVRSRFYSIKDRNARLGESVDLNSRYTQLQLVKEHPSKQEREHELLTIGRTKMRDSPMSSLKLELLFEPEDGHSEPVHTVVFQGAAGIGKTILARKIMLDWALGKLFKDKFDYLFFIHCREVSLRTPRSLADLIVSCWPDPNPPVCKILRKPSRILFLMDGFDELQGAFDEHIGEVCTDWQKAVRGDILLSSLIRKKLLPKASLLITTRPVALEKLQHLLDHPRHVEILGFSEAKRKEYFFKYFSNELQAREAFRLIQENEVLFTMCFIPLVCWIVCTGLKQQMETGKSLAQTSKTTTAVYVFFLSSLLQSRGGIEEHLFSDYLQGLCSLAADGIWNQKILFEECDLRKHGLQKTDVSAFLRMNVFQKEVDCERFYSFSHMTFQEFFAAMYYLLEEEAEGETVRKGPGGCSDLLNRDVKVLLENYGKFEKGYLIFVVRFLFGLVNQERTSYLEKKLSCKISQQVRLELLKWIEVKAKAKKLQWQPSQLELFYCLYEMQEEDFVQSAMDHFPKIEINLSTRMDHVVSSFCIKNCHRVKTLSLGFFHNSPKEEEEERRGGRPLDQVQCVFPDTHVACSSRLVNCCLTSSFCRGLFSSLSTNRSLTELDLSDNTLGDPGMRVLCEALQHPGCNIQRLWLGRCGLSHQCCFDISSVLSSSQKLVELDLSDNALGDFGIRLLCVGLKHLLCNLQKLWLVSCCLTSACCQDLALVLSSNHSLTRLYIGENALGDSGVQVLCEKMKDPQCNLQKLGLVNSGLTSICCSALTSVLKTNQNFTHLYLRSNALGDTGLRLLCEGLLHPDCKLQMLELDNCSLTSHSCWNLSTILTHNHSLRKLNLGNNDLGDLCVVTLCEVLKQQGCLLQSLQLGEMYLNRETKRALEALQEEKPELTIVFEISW

For `COc1ccccc1C1=Nn2c(Cc3ccccc3Nc3c(Cl)cccc3Cl)nnc2SC1`, the Activity (RAW264.7 [1]) was “Dose-Dependent Effect”, the Activity (RAW264.7 [2]) was “Dose-Dependent Effect” and the Activity (RAW264.7 [3]) was “Dose-Dependent Effect”. The inhibition (RAW264.7 [4]) was “Dose-Dependent Effect”, the inhibition (RAW264.7 [5]) was “inactive” and the inhibition [6] was “Active”. The Activity (Mus musculus [7]) was “Active”, the Activity (Mus musculus [8]) was “Active” and the Activity (Mus musculus [9]) was “Active”. The Activity (Mus musculus [10]) was “Active” and the Activity (Mus musculus [11]) was “Active”.
